Measurements reported in patent publication US9220760B2, “Method of modulating the proliferation of medullary thyroid carcinoma cells” (The Administrators of the Tulane Educational Fund, priority 2001, dated 2015).
Read-outs that look alike come from different tables or passages of the source. Where a SMILES comes first, the peptide text is derived from it. [ ]: non-standard residue; d: D form. Tic = O=C(O)[C@@H]1Cc2ccccc2CN1; Abu = CC[C@H](N)C(=O)O

What was measured:
human MTC cell line TT [1] = test: TT cell viability by Trypan Blue staining; format: cell-based
Procedure: (§1) After incubation, the cells were washed three times with ice-cold PBS and twice with 10% ice-cold trichloroacetic acid (TCA). TCA-precipitated material was solubilized in 500 μL 0.2 mol/L sodium hydroxide and 0.1% SDS. Cell-associated radioactivity was then counted in a scintillation spectrometer. Results (counts per min per well) were obtained by determining the mean value of at least six experiments in quadruplicate. The viability of TT cells in control and treated cultures was evaluated by Trypan blue staining both after 24 and 48 hours, and the number of viable cells was always 85-95%.

human SSTR2 = molecular target: T1, human SSTR2 (Homo sapiens, UniProt P30874); test: SSTR2 mediated intracellular calcium mobilization in CHO-K1 cells; format: cell-based; conditions: 10^-7-10^-6 M, FIG. 1
T1 construct: expressed in transfected cells
Procedure: Biological activity of SSTR selective agonists and antagonists was evaluated by the calcium mobilization assay in CHO-K1 cells expressing the human SSTR2 or SSTR5. The cells were harvested by incubating in a 0.3% EDTA/phosphate buffered saline solution (25° C.), and washed twice by centrifugation. The washed cells were resuspended in Hank's—buffered saline solution (HBSS) for loading of the fluorescent Ca^2+ indicator Fura-2AM. Cell suspensions (approximately 10^6 cells/ml) were incubated with 2 mM Fura-2AM for 30 min at 25° C. Unloaded Fura-2AM was removed by centrifugation twice in HBBS, and the final suspensions were transferred to a spectrofluorometer (Hitachi F-2000) equipped with a magnetic stirring mechanism and a temperature-regulated cuvette holder. After equilibration to 37° C., the SS analogues were added for measurement of intracellular Ca^2+ mobilization.

human SSTR1 = human SSTR1 (Homo sapiens, UniProt P30872); test: Radioligand membrane receptor binding assay, SSTR1; conditions: CHO-K1 membranes, [125I-Tyr11]SS-14; read-out: Human somatostatin receptor subtype specificity, Ki, receptor subtype 1
Procedure: Specificity and selectivity of the analogues were determined by Radioligand Binding Assay on CHO-K1 cells stably transfected with each of the SSTR subtypes, as follows.
Membranes for in vitro receptor binding assays were obtained by homogenizing the CHO-K1 cells expressing the SSTR's subtypes in ice-cold 50 mM Tris-HCl and centrifuging twice at 39000 g (10 min), with an intermediate resuspension in fresh buffer. The final pellets were resuspended in 10 mM Tris-HCl for assay. […] The final assay volume was 0.3 ml. […] The incubations were terminated by rapid filtration through GF/C filters (pre-soaked in 0.3% polyethylenimine) using a Brandel filtration manifold. Each tube and filter were then washed three times with 5 ml aliquots of ice-cold buffer.
Subtype affinity was determined by radioligand membrane receptor binding assays in Chinese hamster ovary cells expressing human SSR2 gene or SSR5 cDNA

human MTC cell line TT [2] = test: [3H]thymidine incorporation (DNA synthesis) in TT cells; format: cell-based; conditions: for Change of [3H]thy incorporation: p<0.05
Procedure: Cells were incubated in 24-well plates for 48 hours in a culture medium supplemented with SS analogues at various concentrations (10^−9, 10^−8, 10^−7, and 10^−6 M). Control wells were treated with vehicle solution and [^3H]thy incorporation was measured as radioactivity in TCA-precipitated material. Data from six individual experiments evaluated independently in quadruplicate are expressed as the mean±SEM percent [^3H]thy incorporation inhibition versus untreated control cells *P<0.05 and **P<0.01 vs. control.
Control wells were treated with vehicle solution. [^3H]thy incorporation was measured as radioactivity in TCA-precipitated material. Data from six individual experiments were evaluated independently with four replicates expressed as the mean±SEM percent [^3H]thy incorporation inhibition versus untreated control cells *P<0.05 and **P<0.01 vs. control.
The effects of SSTR selective agonists and antagonists on TT cell DNA synthesis were assessed by determining the rate of [^3H]thymidine ([^3H]thy) incorporation, as previously described (Davis L, et al., 1994 In: Basic methods in Molecular Biology, 2nd edition, Appleton & Lange, Norwalk, Conn., USA: 611-646, degli Uberti E C, et al., 1991 J Clin Endocrinol Metab 72: 1364-1371). TT cells were plated in 24-multiwell plates (10^5 cells/well) and incubated for 48 hours in a medium supplemented with 10% FBS in the presence of [^3H]thy (1.5 μCi/mL; 87 Ci/mmol) with or without each SS analogue at concentrations ranging from 10^−6 to 10^−9 M. Treatments were renewed by adding fresh analogues to the wells after the first 24 h of incubation, without removing the medium.
as §1

human MTC cell line TT [3] = test: TT cell proliferation ([…] 96 MTS assay, viable cell number); format: cell-based
Procedure: Cells were incubated in 96-well plates for 48 hours in a culture medium supplemented with SS analogues at various concentrations (10^−9, 10^−8, 10^−7, and 10^−6 M). Control wells were treated with vehicle solution. TT cell proliferation was measured as absorbance at […] of each well. Data from six individual experiments were evaluated independently with eight replicates expressed as the mean±SEM percent cell proliferation inhibition versus untreated control cells *P<0.05 and **P<0.01 vs. control.
(§2) Control wells were treated with vehicle solution. TT cell proliferation was measured as absorbance at […] of each well. Data from six individual experiments were evaluated independently with eight replicates expressed as the mean±SEM percent cell proliferation inhibition versus untreated control cells *P<0.05 and **P<0.01 vs. control.
as §2, with “solution and” for “solution.”
The effects of SSTR selective agonists and antagonists on TT cell proliferation were assessed by the […] […] The absorbance at 490 nm was then recorded using an ELISA plate reader (EASIA Reader, Medgenix, Camarillo, Calif.). […]

Sequence of human SSTR1 (P30872 whole entry): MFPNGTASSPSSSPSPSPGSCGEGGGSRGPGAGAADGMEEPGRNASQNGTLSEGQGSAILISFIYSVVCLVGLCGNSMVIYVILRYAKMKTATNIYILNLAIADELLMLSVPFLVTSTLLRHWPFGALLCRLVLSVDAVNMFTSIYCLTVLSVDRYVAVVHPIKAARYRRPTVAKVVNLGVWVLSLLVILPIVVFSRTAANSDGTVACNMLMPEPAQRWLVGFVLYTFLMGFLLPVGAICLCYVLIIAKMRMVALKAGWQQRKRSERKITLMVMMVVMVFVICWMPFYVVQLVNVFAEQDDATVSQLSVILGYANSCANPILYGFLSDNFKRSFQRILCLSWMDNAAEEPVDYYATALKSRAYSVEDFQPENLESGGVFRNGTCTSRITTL
T1 sequence (P30874 whole entry): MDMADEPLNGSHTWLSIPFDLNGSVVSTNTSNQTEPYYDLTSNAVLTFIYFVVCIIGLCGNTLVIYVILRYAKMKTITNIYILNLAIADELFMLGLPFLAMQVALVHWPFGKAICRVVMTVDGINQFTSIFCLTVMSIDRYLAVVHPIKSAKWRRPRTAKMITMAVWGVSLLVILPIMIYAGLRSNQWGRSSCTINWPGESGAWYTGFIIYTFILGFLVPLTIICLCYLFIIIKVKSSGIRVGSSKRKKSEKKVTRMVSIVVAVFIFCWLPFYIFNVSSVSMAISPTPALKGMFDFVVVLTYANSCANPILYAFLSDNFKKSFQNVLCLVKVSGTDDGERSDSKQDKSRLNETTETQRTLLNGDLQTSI

CC(C)[C@@H]1NC(=O)[C@H](CCCCN)NC(=O)[C@@H](Cc2c[nH]c3ccccc23)NC(=O)[C@H](Cc2ccc(O)cc2)NC(=O)[C@@H](NC(=O)[C@H](N)Cc2ccc3ccccc3c2)CSSC[C@@H](C(=O)N[C@H](C(N)=O)[C@@H](C)O)NC1=O [Compound 1, D-Nal-cyclo[Cys-Tyr-D-Trp-Lys-Val-Cys]-Thr-NH2]
Cytotoxic action by Trypan Blue staining (human MTC cell line TT [1]; 10^-7 M): not associated with any cytotoxic action

CC[C@@H]1NC(=O)[C@H](CCCCN)NC(=O)[C@@H](Cc2c[nH]c3ccccc23)NC(=O)[C@H](Cc2ccc(O)cc2)NC(=O)[C@@H]2Cc3ccccc3CN2C(=O)[C@H](Cc2ccccc2)NC1=O [Compound 2, cyclo[Tic-Tyr-D-Trp-Lys-Abu-Phe]] (cyclo([Tic]Y[dW]K[Abu]F))
Intracellular Ca2+ mobilization (ratio stimulated/basal) in SSTR2 expressing cells (human SSTR2): stimulated significant intracellular Ca^2+ mobilization | Cytotoxic action by Trypan Blue staining (human MTC cell line TT [1]): not associated with any cytotoxic action

CC[C@@H]1NC(=O)[C@H](CCCCN)NC(=O)[C@@H](Cc2c[nH]c3ccccc23)NC(=O)[C@H](Cc2ccc(O)cc2)NC(=O)[C@@H](NC(=O)[C@@H](Cc2ccccc2)NC(=O)CN2CCN(CCO)CC2)CSSC[C@@H](C(=O)N[C@H](C(N)=O)[C@@H](C)O)NC1=O [Compound 3, 4-(2-Hydroxyethyl)-1-piperazinylacetyl-D-Phe-cyclo(Cys-Tyr-D-Trp-Lys-Abu-Cys)-Thr-NH2]
Ki (human SSTR1): 5.21 µM | Significant reduction of [3H]thy incorporation (human MTC cell line TT [2]; 10^-8 M and 10^-7 M): not | Significant reduction of [3H]thy incorporation (human MTC cell line TT [2]; 10^-9 M): significantly (p<0.05) reduced | Change of [3H]thy incorporation (human MTC cell line TT [2]; 10^-9 M, 48 h): −17%

CC[C@@H]1NC(=O)[C@H](CCCCN)NC(=O)[C@@H](Cc2c[nH]c3ccccc23)NC(=O)[C@H](Cc2ccc(O)cc2)NC(=O)[C@@H](NC(=O)[C@@H](Cc2ccccc2)NS(=O)(=O)CCN2CCN(CCO)CC2)CSSC[C@@H](C(=O)N[C@H](C(N)=O)[C@@H](C)O)NC1=O [Compound 4, 4-(2-Hydroxyethyl)-1-piperazine-2-ethanesulfonyl-D-Phe-cyclo(Cys-Tyr-D-Trp-Lys-Abu-Cys)-Thr-NH2]
Significant reduction of [3H]thy incorporation (human MTC cell line TT [2]; 10^-8 M and 10^-7 M): not | Significant reduction of [3H]thy incorporation (human MTC cell line TT [2]; 10^-9 M): significantly (p<0.05) reduced | Change of [3H]thy incorporation (human MTC cell line TT [2]; 10^-9 M, 48 h): −13%

C[C@@H](O)[C@H](NC(=O)[C@H](Cc1ccccc1)NC(=O)[C@@H](NC(=O)[C@H](CCCCN)NC(=O)[C@@H](Cc1c[nH]c2ccccc12)NC(=O)[C@H](Cc1c[nH]c2ccccc12)NC(=O)[C@H](Cc1ccccc1)NC(=O)[C@H](N)Cc1ccccc1)[C@@H](C)O)C(N)=O [Compound 5, D-Phe-Phe-Trp-D-Trp-Lys-Thr-Phe-Thr-NH2]
Effect on suppression of TT cell [3H]thy incorporation produced by Compound 2 (human MTC cell line TT [2]; 10^-9 M to 10^-6 M with Compound 2 10^-7 M, FIG. 8 upper panel): dose-dependently prevented | Increase of [3H]thy incorporation (human MTC cell line TT [2]; 10^-9 to 10^-6 M, 48 h): 80-175% | Increase of TT cell proliferation (human MTC cell line TT [3]; 10^-8 M, not statistically different from control): up to 11% | Effect on suppression of TT cell proliferation produced by Compound 2 (human MTC cell line TT [3]; 10^-9 M to 10^-6 M with Compound 2 10^-7 M, FIG. 8 lower panel): dose-dependently prevented
